Assays:
strain Schinella granuli = experiment: Oxytop respirometry screening test (oxygen overconsumption = uncoupling); assay type: cell-based
Text: In order to evaluate the reduction in sludge production by an uncoupling chemical agent in respirometry (in order to measure oxygen overconsumption, a characteristic signature of the effects of an uncoupling agent), the oxytop® test technique is used containing a synthetic medium and bacterial strains particularly sensitive to uncoupling agents.
The method and the apparatus used are those described in Example 3 of WO 2004/113236 cited as a reference. The strain Schinella granuli was used as an inoculum in this methodology (which differs from Example 3 of WO 2004/113236 which used activated sludge).
They are expressed as an uncoupling percentage relatively to the control (not comprising any uncoupling agent). This means that for Ex2 at 0.05 mg/l, we have an oxygen overconsumption of 18% relatively to the control not comprising any uncoupling agent. THPS (tetrakis(hydromethyl)phosphonium sulfate) produces uncoupling effects in the oxitop® respirometry tests of 16±8% for a rated concentration of 3 ppm, the 95% confidence interval of THPS in terms of uncoupling factor being, values computed from results obtained in 26 Oxitop® tests.

[1] = test system: activated sludge from the urban STEP of St-Fons; experiment: Chemostat biological pilot, reduction of activated sludge production (flash mixing); settings: 2.9 ppm, 3 months injection
Text: Detection of the reduction of activated sludge by an organophosphonium derivative in a Chemostat® biological pilot.
Tests on biological pilots continuously fed with synthetic effluent dealt with the molecule of Ex2 (Example 2 above), show significant uncoupling effects on the reduction of sludge production. The biological pilots have a volume of 5 liters and are continuously aerated; a purge of the latter is made everyday (except on weekends) in order to obtain a sludge age of about 7 days. The biological pilots were seeded with activated sludge from the urban STEP of St-Fons (France). After a short acclimatization period of the sludge, the treatment with the molecule Ex2 was carried out according to the flash mixing method also described in Example 1 of WO 2004/113236 cited as a reference.
An experiment, for which the total period of injection of the uncoupling product according to the flash mixing method lasted for 3 months, gave the following results:
A complementary experiment, this time using two different grades of the compound Ex2 of Example 2 above, designated as EX21 and EX22a hereafter, gave the following results over a 1 month injection period: […]

In the case of `O=S(=O)([O-])[O-].OC[P+](CO)(CO)CO.OC[P+](CO)(CO)CO` [THPS, tetrakis(hydromethyl)phosphonium sulfate], the “uncoupling percentage relatively to the control (oxygen overconsumption)” value (strain Schinella granuli; 3 ppm (rated concentration), THPS: average over 26 tests) is reported as 16±8%, the “95% confidence interval in terms of uncoupling factor” value (strain Schinella granuli; 3 ppm, computed from 26 Oxitop tests) is reported as 10-22 and the Growth rate [1] is reported as 0.171 g of MLSS/g of removed COD. For the same molecule, the “Reduction in growth rate” value ([1]; vs untreated control) was 9.0% and the “Reduction in sludge production” value ([1]; vs untreated control) was 13.6%.
